Data: patent US20230255934A1, “NURR1 RECEPTOR MODULATORS AND USES THEREOF” (The Regents of the University of California, priority 2020, published 2023)
Entries after “also recorded” stand apart in the source; their conditions may differ.

Experiments:
[1] = system: Nurr1 (siRNA knockdown) in MN9D cells; assay: Nurr1 knockdown (siRNA) assay with qPCR of target genes in MN9D cells; assay type: cell-based, mouse; settings: 10 μM, 24 h, Nurr1 siRNA vs control siRNA
Description: Nurr1 knockdown (siRNA) assays were completed according to standard protocols. Briefly, MN9D cells were resuspended in DMEM/F-12 with 5% FBS at 1·10^6 cells/mL, and reverse-transfected with either control or Nurr1 siRNAs (40 nM final concentration) by combining 4 mL of cell suspension with 1 mL of Opti-MEM containing 200 nM siRNA and 10 μL Lipofectamine 2000 (Invitrogen, cat #:11668019). The resulting cell suspension was plated on poly-D-lysine treated six-well plates at 2.5 mL/well, and allowed to incubate for 24 h at 37° C., in 5% CO2 incubator. After 24 hours, the cells were trypsinized, resuspended in DMEM/F-12 with 5% FBS at 2·10^5 cells/mL, mixed with equal volume of 20 μM 5-chloroindole in the same media containing 0.2% DMSO (prepared by diluting DMSO stock of 5-chloroindole (10 mM) in warm DMEM/F-12 with 5% FBS; for the DMSO control an equivalent volume of DMSO was used instead of the compound stock), and immediately re-plated on poly-D-lysine pre-treated 24-well plates at 1-10^5 cells/well and incubated as above. After 24 hours, total RNA was isolated and the target gene transcription assay (qPCR) was performed as described above. Nurr1 siRNA N1 were purchased from Sigma (Cat No. SASI_Mm02_00322368), and the sequences were as follows: 5′-GAA UCA GCU UUC UUA GAA U[dT][dT]-3′ (SEQ ID NO:17) (sense) and 5′-AUU CUA AGA AAG CUG AUU C[dT][dT]-3′ (SEQ ID NO:18) (antisense). […]

[2] = biological target: T1, Nurr1-LBD_Gal4-DBD chimeric protein (Homo sapiens, UniProt P43354); assay: Nurr1-LBD_Gal4-DBD luciferase reporter assay in MN9D cells; assay type: cell-based; settings: 6 h treatment
T1 construct: prepared by subcloning the Nurr1 LBD fragment into […] plasmid (Clontech) containing GAL4 DBD; expressed in transfected cells; host or cells: MN9D TET-ON cells
T1 sequence (P43354 360-595 limits assumed, change not shown): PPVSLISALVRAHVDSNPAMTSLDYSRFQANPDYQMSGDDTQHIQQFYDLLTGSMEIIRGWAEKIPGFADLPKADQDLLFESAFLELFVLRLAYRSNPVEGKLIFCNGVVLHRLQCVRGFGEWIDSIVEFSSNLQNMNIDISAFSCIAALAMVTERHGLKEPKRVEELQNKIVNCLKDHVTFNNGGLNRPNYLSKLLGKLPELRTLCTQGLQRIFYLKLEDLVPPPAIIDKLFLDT
Description: Luciferase Reporter Assays. These assays were executed using standard protocols. MN9D TET-ON cells (P5) were grown for 60-72 h (see above) before being seeded at 1-10^5 cell/well in 24-well plate in DMEM/F12+5% TET-ON approved FBS 3 h before transfection. Cells were transfected using Lipofectamine 2000 (Invitrogen) and plasmid DNAs according to manufacturer's instructions. Lipofectamine/DNA complexes were prepared in Opti-Mem medium (Gibco) and incubated with cells overnight. The Nurr1-LBD_Gal4-DBD expressing plasmid was prepared by subcloning the Nurr1 LBD fragment into […] plasmid (Clontech) containing GAL4 DBD. […] Transfected cells were treated with increasing concentrations of 5-chloroindole or vehicle only for 6 h, after which time the media was aspirated and luciferase activity was measured. […] Resulting solutions were transferred to a white opaque 96-well plate (65 μL/well; 3 wells/sample) and firefly luciferase activity was measured using Veritas Microplate Luminometer (Turner BioSystems, Sunnyvale, Calif.). […] Renilla luciferase activity was measured after 20 min of incubation of the plate inside the luminometer. Experimental values are expressed as the average of firefly/renilla luciferase activity±standard deviation (for three independent biological replicates). […]

[3] = Dynamic light scattering assay of nano-aggregation; assay type: physicochemical; settings: MST buffer with Pluronic F127
Description: Measurements were made using a DynaPro MS/X (Wyatt Technology) with a 55 mW laser at 826.6 nm, using a detector angle of 90°. The laser power was 100%, and the acquisition time was 2 s. Histograms represent the average of three independent data sets, each with at least 10 measurements.

Clc1ccc2[nH]ccc2c1 [5-chloroindole]
Effect on expression of Th and Vmat2 with knockdown of Nurr1 [1]: significantly reduced in the presence of Nurr1 siRNA, but not control siRNA; also recorded: inhibited by siRNA specific for Nurr1
Luciferase production, Nurr1-LBD_Gal4-DBD reporter [2]: stimulates production of luciferase; also recorded: stimulates the activity of Nurr1
Nano-aggregation properties [3]: minimal
